From ChEMBL document CHEMBL1156331, “7-Phenylplatensimycin and 11-methyl-7-phenylplatensimycin: more potent analogs of platensimycin” (2010)
Values after ≈ are worked out from the molar mass of the structure shown.

Columns and labels:
Type in all cases: functional
[1] = test system: Staphylococcus aureus; experiment: Antimicrobial activity against methicillin-sensitive Staphylococcus aureus isolate 1
[2] = test system: Staphylococcus aureus; experiment: Antimicrobial activity against methicillin-sensitive Staphylococcus aureus isolate 3
[3] = test system: Staphylococcus aureus; experiment: Antimicrobial activity against vancomycin-insensitive Staphylococcus aureus isolate 10
[4] = test system: Enterococcus faecium; experiment: Antimicrobial activity against vancomycin-resistant Enterococcus faecium isolate 14
[5] = test system: Staphylococcus aureus; experiment: Antimicrobial activity against methicillin-resistant Staphylococcus aureus isolate 6
[6] = test system: Enterococcus faecalis; experiment: Antimicrobial activity against vancomycin-resistant Enterococcus faecalis isolate 12
[7] = test system: Staphylococcus aureus; experiment: Antimicrobial activity against methicillin-resistant Staphylococcus aureus isolate 8
[8] = test system: Staphylococcus aureus; experiment: Antimicrobial activity against vancomycin-insensitive Staphylococcus aureus isolate 9
[9] = test system: Staphylococcus aureus; experiment: Antimicrobial activity against methicillin-sensitive Staphylococcus aureus isolate 4
[10] = test system: Staphylococcus aureus; experiment: Antimicrobial activity against methicillin-resistant Staphylococcus aureus isolate 7
[11] = test system: Enterococcus faecalis; experiment: Antimicrobial activity against vancomycin-sensitive Enterococcus faecalis isolate 11
[12] = test system: Staphylococcus aureus; experiment: Antimicrobial activity against methicillin-sensitive Staphylococcus aureus isolate 2
[13] = test system: Enterococcus faecalis; experiment: Antimicrobial activity against vancomycin-resistant Enterococcus faecalis isolate 13
[14] = test system: Staphylococcus aureus; experiment: Antimicrobial activity against methicillin-resistant Staphylococcus aureus isolate 5
[15] = test system: Enterococcus faecium; experiment: Antimicrobial activity against vancomycin-resistant Enterococcus faecium isolate 15

SMILES	MIC [1]	MIC [2]	MIC [3]	MIC [4]	MIC [5]	MIC [6]	MIC [7]	MIC [8]	MIC [9]	MIC [10]	MIC [11]	MIC [12]	MIC [13]	MIC [14]	MIC [15]
CC12C[C@@]34C=CC(=O)[C@@](C)(CCC(=O)Nc5c(O)ccc(C(=O)O)c5O)C3[C@H](CC1C4)O2 (stereo partly drawn) [PLATENSIMYCIN]	1 µg/mL (≈ 2.27 µM)	8 µg/mL (≈ 18.1 µM)	2 µg/mL (≈ 4.53 µM)	≤ 0.5 µg/mL	0.25 µg/mL (≈ 0.566 µM)	8 µg/mL (≈ 18.1 µM)	1 µg/mL (≈ 2.27 µM)	2 µg/mL (≈ 4.53 µM)	< 0.25 µg/mL	0.25 µg/mL (≈ 0.566 µM)	≤ 0.5 µg/mL	2 µg/mL (≈ 4.53 µM)	8 µg/mL (≈ 18.1 µM)	0.25 µg/mL (≈ 0.566 µM)	≤ 0.5 µg/mL
C[C@@H]1C2OC3(C)CC4(C=CC(=O)C(C)(CCC(=O)Nc5c(O)ccc(C(=O)O)c5O)C24)CC13 (stereo partly drawn)	0.25 µg/mL (≈ 0.549 µM)	8 µg/mL (≈ 17.6 µM)	8 µg/mL (≈ 17.6 µM)	2 µg/mL (≈ 4.39 µM)	0.5 µg/mL (≈ 1.1 µM)	32 µg/mL (≈ 70.3 µM)	1 µg/mL (≈ 2.2 µM)	2 µg/mL (≈ 4.39 µM)	< 0.25 µg/mL	0.5 µg/mL (≈ 1.1 µM)	1 µg/mL (≈ 2.2 µM)	1 µg/mL (≈ 2.2 µM)	64 µg/mL (≈ 141 µM)	0.25 µg/mL (≈ 0.549 µM)	1 µg/mL (≈ 2.2 µM)
CC1=CC(=O)C(C)(CCC(=O)Nc2c(O)ccc(C(=O)O)c2O)C2C3CC4CC12CC4(C)O3 (stereo not drawn)	0.5 µg/mL (≈ 1.1 µM)	2 µg/mL (≈ 4.39 µM)	4 µg/mL (≈ 8.78 µM)	2 µg/mL (≈ 4.39 µM)	0.5 µg/mL (≈ 1.1 µM)	8 µg/mL (≈ 17.6 µM)	2 µg/mL (≈ 4.39 µM)	4 µg/mL (≈ 8.78 µM)	0.5 µg/mL (≈ 1.1 µM)	0.25 µg/mL (≈ 0.549 µM)	≤ 0.5 µg/mL	4 µg/mL (≈ 8.78 µM)	16 µg/mL (≈ 35.1 µM)	1 µg/mL (≈ 2.2 µM)	≤ 0.5 µg/mL
CN[C@H](CC(C)C)C(=O)N[C@H]1C(=O)N[C@@H](CC(N)=O)C(=O)N[C@H]2C(=O)N[C@H]3C(=O)N[C@H](C(=O)N[C@H](C(=O)O)c4cc(O)cc(O)c4-c4cc3ccc4O)[C@H](O)c3ccc(c(Cl)c3)Oc3cc2cc(c3O[C@@H]2O[C@H](CO)[C@@H](O)[C@H](O)[C@H]2O[C@H]2C[C@](C)(N)[C@H](O)[C@H](C)O2)Oc2ccc(cc2Cl)[C@H]1O [VANCOMYCIN]	–	–	–	> 128 µg/mL	–	–	–	–	–	–	2 µg/mL (≈ 1.38 µM)	–	–	–	> 128 µg/mL
Cc1onc(-c2ccccc2)c1C(=O)N[C@@H]1C(=O)N2[C@@H]1SC(C)(C)[C@@H]2C(=O)O [OXACILLIN]	< 0.25 µg/mL	< 0.25 µg/mL	> 32 µg/mL	–	> 32 µg/mL	–	> 32 µg/mL	> 32 µg/mL	< 0.25 µg/mL	> 32 µg/mL	–	< 0.25 µg/mL	–	> 32 µg/mL	–
C[C@@H]1C2OC3(C)CC4(CC13)C(c1ccccc1)=CC(=O)C(C)(CCC(=O)Nc1c(O)ccc(C(=O)O)c1O)C24 (stereo partly drawn)	< 0.25 µg/mL	0.5 µg/mL (≈ 0.941 µM)	4 µg/mL (≈ 7.52 µM)	2 µg/mL (≈ 3.76 µM)	< 0.25 µg/mL	16 µg/mL (≈ 30.1 µM)	< 0.25 µg/mL	1 µg/mL (≈ 1.88 µM)	< 0.25 µg/mL	< 0.25 µg/mL	8 µg/mL (≈ 15 µM)	0.5 µg/mL (≈ 0.941 µM)	8 µg/mL (≈ 15 µM)	< 0.25 µg/mL	≤ 0.5 µg/mL
CC12CC34CC1CC(O2)C3C(C)(CCC(=O)Nc1c(O)ccc(C(=O)O)c1O)C(=O)C=C4c1ccccc1 (stereo not drawn)	0.25 µg/mL (≈ 0.483 µM)	2 µg/mL (≈ 3.86 µM)	1 µg/mL (≈ 1.93 µM)	2 µg/mL (≈ 3.86 µM)	< 0.25 µg/mL	8 µg/mL (≈ 15.5 µM)	0.5 µg/mL (≈ 0.966 µM)	1 µg/mL (≈ 1.93 µM)	< 0.25 µg/mL	< 0.25 µg/mL	≤ 0.5 µg/mL	0.5 µg/mL (≈ 0.966 µM)	16 µg/mL (≈ 30.9 µM)	< 0.25 µg/mL	≤ 0.5 µg/mL
CC12CC34C=CC(=O)C(C)(CCC(=O)Nc5c(O)ccc(C(=O)O)c5O)C3C(O1)[C@@H](Cl)C2C4 (stereo partly drawn)	1 µg/mL (≈ 2.1 µM)	8 µg/mL (≈ 16.8 µM)	8 µg/mL (≈ 16.8 µM)	8 µg/mL (≈ 16.8 µM)	0.5 µg/mL (≈ 1.05 µM)	64 µg/mL (≈ 134 µM)	4 µg/mL (≈ 8.4 µM)	8 µg/mL (≈ 16.8 µM)	0.5 µg/mL (≈ 1.05 µM)	0.25 µg/mL (≈ 0.525 µM)	2 µg/mL (≈ 4.2 µM)	8 µg/mL (≈ 16.8 µM)	64 µg/mL (≈ 134 µM)	0.25 µg/mL (≈ 0.525 µM)	2 µg/mL (≈ 4.2 µM)
CC12CC34C=CC(=O)C(C)(CCC(=O)Nc5c(O)ccc(C(=O)O)c5O)C3C(O1)[C@@H](Br)C2C4 (stereo partly drawn)	1 µg/mL (≈ 1.92 µM)	32 µg/mL (≈ 61.5 µM)	16 µg/mL (≈ 30.7 µM)	4 µg/mL (≈ 7.69 µM)	2 µg/mL (≈ 3.84 µM)	128 µg/mL (≈ 246 µM)	4 µg/mL (≈ 7.69 µM)	8 µg/mL (≈ 15.4 µM)	1 µg/mL (≈ 1.92 µM)	1 µg/mL (≈ 1.92 µM)	4 µg/mL (≈ 7.69 µM)	8 µg/mL (≈ 15.4 µM)	> 128 µg/mL	1 µg/mL (≈ 1.92 µM)	16 µg/mL (≈ 30.7 µM)
CC1(CCC(=O)Nc2c(O)ccc(C(=O)O)c2O)C(=O)C=CC23CC4CC(OC4(c4ccccc4)C2)C31 (stereo not drawn)	2 µg/mL (≈ 3.97 µM)	8 µg/mL (≈ 15.9 µM)	16 µg/mL (≈ 31.8 µM)	8 µg/mL (≈ 15.9 µM)	2 µg/mL (≈ 3.97 µM)	16 µg/mL (≈ 31.8 µM)	4 µg/mL (≈ 7.94 µM)	16 µg/mL (≈ 31.8 µM)	1 µg/mL (≈ 1.99 µM)	2 µg/mL (≈ 3.97 µM)	≤ 0.5 µg/mL	8 µg/mL (≈ 15.9 µM)	16 µg/mL (≈ 31.8 µM)	1 µg/mL (≈ 1.99 µM)	≤ 0.5 µg/mL
